The source made the active and inactive calls. The calls are words filed in the database; no cut-off is given here.
Columns and labels:
[1] = system: Human immunodeficiency virus 1; assay: Antiviral activity against HIV-1 IIIB infected in C8166 cells; type: functional, organism-based; settings: Human immunodeficiency virus 1, IIIB
[2] = system: Human immunodeficiency virus 1; assay: Antiviral activity against HIV-1 G140S/Q148H infected in C8166 cells; type: functional, organism-based; settings: Human immunodeficiency virus 1, G140S/Q148H
[3] = system: Human immunodeficiency virus 1; assay: Antiviral activity against HIV-1 IIIB infected in TZM-bl cells; type: functional, organism-based; settings: Human immunodeficiency virus 1, IIIB
[4] = system: Human immunodeficiency virus 1; assay: Antiviral activity against HIV-1 WAN infected in PHA-P stimulated PBMCs; type: functional, organism-based; settings: Human immunodeficiency virus 1, WAN, PBMC
[5] = target: T1, Protein cereblon/Virion infectivity factor (Human immunodeficiency virus type 1 group M subtype B (isolate NY5)(HIV-1)) (UniProt Q96SW2+P12504); assay: PROTAC activity at CRBN (unknown origin)/Vif in HIV-1 TREX-hvif-15 cells assessed as reduction in Vif protein level incubated for 24 hrs by Western blotting analysis; type: cell-based; settings: TREX-hvif-15 cell, dose 3.125-50 µM
[6] = target: T1, Protein cereblon/Virion infectivity factor (Human immunodeficiency virus type 1 group M subtype B (isolate NY5)(HIV-1)); assay: PROTAC activity at CRBN (unknown origin)/Vif in HIV-1 TREX-hvif-15 cells assessed as reduction in Vif protein level at 100 uM incubated for 24 hrs by Western blotting analysis; type: cell-based; design: scale not given: the % may be the effect or the level left; settings: TREX-hvif-15 cell
[7] = system: Human immunodeficiency virus 1; assay: Antiviral activity against HIV-1 2802 infected in C8166 cells; type: functional, organism-based; settings: Human immunodeficiency virus 1, 2802, C8166
[8] = Cytotoxicity against human PBMCs; type: toxicity, cell-based, PBMC
[9] = system: Human immunodeficiency virus 1; assay: Antiviral activity against HIV1 at 50 uM measured after 8 hrs; type: functional, organism-based
[10] = system: Human immunodeficiency virus 1; assay: Antiviral activity against HIV-1 9498 infected in C8166 cells; type: functional, organism-based; settings: Human immunodeficiency virus 1, 9498, C8166
[11] = system: Human immunodeficiency virus 1; assay: Antiviral activity against HIV-1 4755-5 infected in C8166 cells; type: functional, organism-based; settings: Human immunodeficiency virus 1, 4755-5, C8166
[12] = system: Human immunodeficiency virus 1; assay: Antiviral activity against HIV-1 KIZ002 infected in PHA-P stimulated PBMCs; type: functional, organism-based; settings: Human immunodeficiency virus 1, KIZ002, PBMC
[13] = Therapeutic index, ratio of CC50 for human TZM-bl cells to EC50 for HIV IIIB infected in TZM-bl cells; type: toxicity, cell-based; settings: read-out: Ratio CC50/EC50
[14] = Cytotoxicity against human TZM-bl cells; type: toxicity, cell-based
[15] = system: Human immunodeficiency virus 1; assay: Antiviral activity against HIV-1 A17 infected in C8166 cells; type: functional, organism-based; settings: Human immunodeficiency virus 1, A17, C8166
[16] = target: T1, Protein cereblon/Virion infectivity factor (Human immunodeficiency virus type 1 group M subtype B (isolate NY5)(HIV-1)); assay: PROTAC activity at CRBN (unknown origin)/Vif in HIV-1 TREX-hvif-15 cells assessed as reduction in Vif protein level at 50 uM pretreated with MG132 followed by compound addition and measured after 24 hrs by Western blotting analysis; type: cell-based; settings: TREX-hvif-15 cell
[17] = target: T1, Protein cereblon/Virion infectivity factor (Human immunodeficiency virus type 1 group M subtype B (isolate NY5)(HIV-1)); assay: PROTAC activity at CRBN (unknown origin)/Vif in HIV-1 TREX-hvif-15 cells assessed as reduction in Vif protein level at 50 uM by Western blotting analysis; type: cell-based; settings: TREX-hvif-15 cell

T1 sequence (P12504 whole entry, looked up): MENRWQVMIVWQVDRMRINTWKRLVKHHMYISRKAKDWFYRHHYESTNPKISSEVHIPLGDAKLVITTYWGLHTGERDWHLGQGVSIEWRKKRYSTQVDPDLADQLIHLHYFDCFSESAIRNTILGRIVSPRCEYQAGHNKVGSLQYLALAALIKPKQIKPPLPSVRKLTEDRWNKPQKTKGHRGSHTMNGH
T1 sequence (Q96SW2 whole entry, looked up): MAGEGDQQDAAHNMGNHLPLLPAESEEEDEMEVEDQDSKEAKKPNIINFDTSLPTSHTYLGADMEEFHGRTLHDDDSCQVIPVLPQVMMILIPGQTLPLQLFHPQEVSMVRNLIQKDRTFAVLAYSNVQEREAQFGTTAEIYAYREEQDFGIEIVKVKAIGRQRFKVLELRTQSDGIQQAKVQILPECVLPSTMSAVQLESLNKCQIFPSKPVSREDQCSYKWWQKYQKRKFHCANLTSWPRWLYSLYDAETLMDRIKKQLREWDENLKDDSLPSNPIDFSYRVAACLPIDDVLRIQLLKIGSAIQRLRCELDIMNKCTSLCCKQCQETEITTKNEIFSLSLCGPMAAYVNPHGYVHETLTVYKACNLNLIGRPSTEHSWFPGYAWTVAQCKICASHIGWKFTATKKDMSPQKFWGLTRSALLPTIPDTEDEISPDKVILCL

COc1ccc(OCC(=O)NCCOCCOCCNc2cccc3c2C(=O)N(C2CCC(=O)NC2=O)C3=O)cc1NC(=O)c1c(N)cccc1Sc1ccc([N+](=O)[O-])cc1 (configuration not stated)
EC50 [1]: 10.5 µM
EC50 [2]: 8.43 µM
EC50 [3]: 33.4 µM
EC50 [4]: 8.76 µM
Activity [5]: Dose-Dependent Effect
Activity [6]: 100%
EC50 [7]: 7.3 µM
CC50 [8]: > 200 µM
Activity [9]: Active
EC50 [10]: 9.65 µM
EC50 [11]: 13.6 µM
EC50 [12]: 10.5 µM
selectivity ratio [13]: > 6
CC50 [14]: > 200 µM
EC50 [15]: > 100 µM
Activity [16]: inactive
Activity [17]: Active

Reference: ChEMBL document CHEMBL6127009, “Discovery of L15 as a novel Vif PROTAC degrader with antiviral activity against HIV-1” (Bioorg Med Chem Lett, 2024)
